Literature values as cited in article PMC5618191 (Toxins, 2017).

Set-up: method as in PMID 26892719
Conditions: after three days of treatment; cited from earlier work

CC(C)[C@H]1C(=O)O[C@H](C(C)C)C(=O)N(C)[C@@H](C(C)C)C(=O)O[C@H](C(C)C)C(=O)N(C)[C@@H](C(C)C)C(=O)O[C@H](C(C)C)C(=O)N1C [ENN B, enniatin B]
Metabolites in mice: three phase I metabolites
